Experimental findings from patent US9394268B2, “(E)-1-(5-methoxy-2,2-dimethyl-2H-chromen-8-yl)-3-(4-methoxyphenyl)prop-2-en-1-one and analogs thereof, as well as preparation method and use thereof” (Sichuan University, priority 2012, dated 2016) are described below.

Some results are limits rather than exact numbers.

Common to all, as to format: cell-based
For one assay, the system named is SW620. As to the kind of experiment: Cell proliferative assay (MTT), SW620. The note with it: Homo sapiens, SW-620, 72 h incubation, read-out: IC50s SW620. Here is the method: (§1) The synthesized compounds were evaluated for their cytotoxin activity against suspended tumor cells. These cells were seeded on 96-well plates and incubated for 24 h. Selected compounds were added at various doses and incubated for 72 h, MTT was then added, and the absorbance was measured at a wavelength of 590 nm. IC50 values are expressed as the mean±SEM from the dose-response curves of at least three independent experiments.

For the next assay, the system named is K562. As to the kind of experiment: Cell proliferative assay (MTT), K562. The note with it: Homo sapiens, 72 h incubation, read-out: IC50s K562. As to the method: as §1
The next assay has as its system HCT116. Nature of the assay: Cell proliferative assay (MTT), HCT116. The note with it: Homo sapiens, HCT-116, 72 h incubation, read-out: IC50s HCT116. Here is the method: as §1
For another assay, the system named is HepG2. As to the kind of experiment: Cell proliferative assay (MTT), HepG2. The note with it: Homo sapiens, 72 h incubation, read-out: IC50s HepG2. As to the method:
as §1

In a further assay the test system is HT29. Nature of the assay: Cell proliferative assay (MTT), HT29. The conditions noted are these: Homo sapiens, HT-29, 72 h incubation, read-out: IC50s HT29. Here is the method: as §1
Another assay relates to LO2. Nature of the assay: Cell proliferative assay (MTT), LO2. The conditions noted are these: Homo sapiens, L02, 72 h incubation, read-out: IC50s LO2. As to the method:
as §1

Another assay relates to A375. Nature of the assay: Cell proliferative assay (MTT), A375. The note with it: Homo sapiens, A-375, 72 h incubation, read-out: IC50s A375. Here is the method: as §1
Another assay deals with A549. As to the kind of experiment: Cell proliferative assay (MTT), A549. The note with it: Homo sapiens, 72 h incubation, read-out: IC50s A549. As to the method: as §1
The next assay deals with SMMC-7221. As to the kind of experiment: Cell proliferative assay (MTT), SMMC-7221. The note with it: 72 h incubation, read-out: IC50s SMMC-7221. Here is the method: as §1

Turning to `COc1cccc(/C=C/C(=O)c2ccc(OC)c3c2OC(C)(C)C=C3)c1` [SKLBC-2, (E)-1-(5-methoxy-2,2-dimethyl-2H-chromen-8-yl)-3-(3-methoxyphenyl)prop-2-en-1-one], the IC50 with SW620, in the assay with K562, with HCT116, with HepG2 and with HT29 was above 10 µM each time.
Consider `COc1ccc(C(=O)/C=C/c2cc(OC)c(OC)c(OC)c2)c2c1C=CC(C)(C)O2` [SKLBC-3, (E)-1-(5-methoxy-2,2-dimethyl-2H-chromen-8-yl)-3-(3,4,5-trimethoxyphenyl)prop-2-en-1-one], for which the IC50 is 9.15 µM with SW620; above 10 µM in the assay on K562; 7.65 µM in the assay on HCT116; above 10 µM in the assay on HepG2; above 10 µM in the assay on HT29.
On to `COc1cc(OC)c(OC)cc1/C=C/C(=O)c1ccc(OC)c2c1OC(C)(C)C=C2` [SKLBC-5, (E)-1-(5-methoxy-2,2-dimethyl-2H-chromen-8-yl)-3-(2,4,5-trimethoxyphenyl)prop-2-en-1-one], for which the IC50 with SW620, with K562, with HCT116, in the assay with HepG2 and with HT29 was above 10 µM each time.
For the compound `COc1ccc(C(=O)/C=C/c2ccc(F)cc2)c2c1C=CC(C)(C)O2` [SKLBC-6, (E)-3-(4-fluorophenyl)-1-(5-methoxy-2,2-dimethyl-2H-chromen-8-yl)prop-2-en-1-one], the IC50 in the assay on SW620, in the assay on K562, in the assay on HCT116, in the assay on HepG2 and in the assay with HT29 was above 10 µM in each case.
Regarding `COc1ccc(C(=O)/C=C/c2cccc(F)c2)c2c1C=CC(C)(C)O2` [SKLBC-7, (E)-3-(3-fluorophenyl)-1-(5-methoxy-2,2-dimethyl-2H-chromen-8-yl)prop-2-en-1-one], the IC50 with SW620 is above 10 µM; with K562, above 10 µM; in the assay with HCT116 it was 1.92 µM; in the assay on HepG2, above 10 µM; in the assay with HT29, above 10 µM.
Take `C#CCNc1cc(/C=C/C(=O)c2ccc(OC)c3c2OC(C)(C)C=C3)ccc1OC` [SKLBC-87, (E)-1-(5-methoxy-2,2-dimethyl-2H-chromen-8-yl)-3-(4-methoxy-3-(prop-2-yn-1-ylamino)phenyl)prop-2-en-1-one]: the IC50 with K562 was above 10 µM; in the assay with LO2, above 20 µM; in the assay with A375, above 10 µM; in the assay with HepG2 it was above 10 µM; in the assay with A549, above 10 µM; in the assay on SMMC-7221 it was above 10 µM.
`COc1ccc(/C=C/C(=O)c2ccc(OC)c3c2OC(C)(C)C=C3)cc1N(CC=C(C)C)CC=C(C)C` [SKLBC-88, (E)-3-(3-(bis(3-methylbut-2-en-1-yl)amino)-4-methoxyphenyl)-1-(5-methoxy-2,2-dimethyl-2H-chromen-8-yl)prop-2-en-1-one]: the IC50 in the assay with K562 is 7.5 µM; in the assay with LO2, 9.7 µM; in the assay with A375, above 10 µM; with HepG2, above 10 µM; with A549 it was above 10 µM; in the assay on SMMC-7221, above 10 µM.
Regarding `COc1ccc(/C=C/C(=O)c2ccc(OC)c3c2OC(C)(C)C=C3)cc1NCCN1CCOCC1` [SKLBC-89, (E)-1-(5-methoxy-2,2-dimethyl-2H-chromen-8-yl)-3-(4-methoxy-3-((2-morpholinoethyl)amino)phenyl)prop-2-en-1-one], the IC50 stood at 0.093 µM in the assay with K562; 2.65 µM in the assay on LO2; 0.215 µM with A375; 0.05 µM with HepG2; 0.215 µM with A549; 0.245 µM with SMMC-7221.
As for `COc1ccc(/C=C/C(=O)c2ccc(OC)c3c2OC(C)(C)C=C3)cc1N(Cc1ccccc1)Cc1ccccc1` [SKLBC-91, (E)-3-(3-(dibenzylamino)-4-methoxyphenyl)-1-(5-methoxy-2,2-dimethyl-2H-chromen-8-yl)prop-2-en-1-one], the IC50 in the assay on K562 was 0.57 µM; with LO2, above 10 µM; in the assay on A375, above 10 µM; in the assay on HepG2, above 10 µM; with A549, above 10 µM; in the assay with SMMC-7221 it was above 10 µM.
Consider `COc1ccc(/C=C/C(=O)c2ccc(OC)c3c2OC(C)(C)C=C3)cc1NC(C)=O` [SKLBC-92, (E)-N-(2-methoxy-5-(3-(5-methoxy-2,2-dimethyl-2H-chromen-8-yl)-3-oxoprop-1-en-1-yl)phenyl)acetamide], for which the IC50 with K562 was 3.5 µM; with LO2 it was above 10 µM; in the assay with A375 it was 2.15 µM; in the assay on HepG2, 2.85 µM; in the assay on A549, 5 µM; in the assay with SMMC-7221, 2.24 µM.
Consider `C=CC(=O)Nc1cc(/C=C/C(=O)c2ccc(OC)c3c2OC(C)(C)C=C3)ccc1OC` [SKLBC-94, (E)-N-(2-methoxy-5-(3-(5-methoxy-2,2-dimethyl-2H-chromen-8-yl)-3-oxoprop-1-en-1-yl)phenyl)acrylamide], for which the IC50 is above 10 µM in the assay on K562; above 20 µM in the assay on LO2; above 10 µM in the assay with A375; above 10 µM in the assay with HepG2; above 10 µM with A549; above 10 µM in the assay with SMMC-7221.
Turning to `CCCCC(=O)Nc1cc(/C=C/C(=O)c2ccc(OC)c3c2OC(C)(C)C=C3)ccc1OC` [SKLBC-95, (E)-N-(2-methoxy-5-(3-(5-methoxy-2,2-dimethyl-2H-chromen-8-yl)-3-oxoprop-1-en-1-yl)phenyl)pentanamide], the IC50 in the assay on K562 was above 10 µM; in the assay on LO2 it was above 20 µM; in the assay with A375, above 10 µM; in the assay on HepG2 it was above 10 µM; with A549, above 10 µM; in the assay on SMMC-7221, above 10 µM.
As to `COc1ccc(/C=C/C(=O)c2ccc(OC)c3c2OC(C)(C)C=C3)cc1NC(=O)C(C)C` [SKLBC-96, (E)-N-(2-methoxy-5-(3-(5-methoxy-2,2-dimethyl-2H-chromen-8-yl)-3-oxoprop-1-en-1-yl)phenyl)isobutyramide], the IC50 in the assay with K562 was above 10 µM; in the assay with LO2, above 20 µM; in the assay on A375, above 10 µM; in the assay with HepG2, above 10 µM; in the assay with A549 it was above 10 µM; with SMMC-7221, above 10 µM.
In the case of `COc1ccc(/C=C/C(=O)c2ccc(OC)c3c2OC(C)(C)C=C3)cc1NC(=O)Cc1cccc(C(F)(F)F)c1` [SKLBC-97, (E)-N-(2-methoxy-5-(3-(5-methoxy-2,2-dimethyl-2H-chromen-8-yl)-3-oxoprop-1-en-1-yl)phenyl)-2-(3-(trifluoromethyl)phenyl)acetamide], the IC50 in the assay on K562, in the assay on LO2, in the assay with A375, in the assay with HepG2, in the assay on A549 and in the assay with SMMC-7221 was above 10 µM throughout.
Take `COc1ccc(/C=C/C(=O)c2ccc(OC)c3c2OC(C)(C)C=C3)cc1NC(N)=O` [SKLBC-98, (E)-1-(2-methoxy-5-(3-(5-methoxy-2,2-dimethyl-2H-chromen-8-yl)-3-oxoprop-1-en-1-yl)phenyl)urea]: the IC50 with K562 is 7.85 µM; with LO2, above 10 µM; in the assay with A375, 2.4 µM; with HepG2, 3.6 µM; in the assay with A549 it was 8.6 µM; in the assay with SMMC-7221, 9.2 µM.
Consider `COc1ccc(/C=C/C(=O)c2ccc(OC)c3c2OC(C)(C)C=C3)cc1NS(C)(=O)=O` [SKLBC-99, (E)-N-(2-methoxy-5-(3-(5-methoxy-2,2-dimethyl-2H-chromen-8-yl)-3-oxoprop-1-en-1-yl)phenyl)methanesulfonamide], for which the IC50 in the assay with K562 was 8.85 µM; with LO2, 9.8 µM; in the assay on A375, 9 µM; in the assay on HepG2, 10 µM; with A549 it was above 10 µM; in the assay with SMMC-7221, 5.6 µM.
Consider `COc1ccc(/C=C/C(=O)c2ccc(OC)c3c2OC(C)(C)C=C3)cc1NS(=O)(=O)C1CC1` [SKLBC-100, (E)-N-(2-methoxy-5-(3-(5-methoxy-2,2-dimethyl-2H-chromen-8-yl)-3-oxoprop-1-en-1-yl)phenyl)cyclopropanesulfonamide], for which the IC50 in the assay with K562 was above 10 µM; in the assay with LO2, above 20 µM; in the assay on A375, above 10 µM; in the assay on HepG2, above 10 µM; in the assay with A549, above 10 µM; in the assay on SMMC-7221, above 10 µM.
For the compound `COc1ccc(/C=C/C(=O)c2ccc(OC)c3c2OC(C)(C)C=C3)cc1NS(=O)(=O)c1ccc(C)cc1` [SKLBC-101, (E)-N-(2-methoxy-5-(3-(5-methoxy-2,2-dimethyl-2H-chromen-8-yl)-3-oxoprop-1-en-1-yl)phenyl)-4-methylbenzenesulfonamide], the IC50 is above 10 µM with K562; above 10 µM in the assay on LO2; above 10 µM with A375; above 10 µM with HepG2; above 10 µM with A549; 6.8 µM with SMMC-7221.
`COc1ccc(/C=C/C(=O)c2ccc(OC)c3c2OC(C)(C)C=C3)cc1NS(=O)(=O)Cc1ccccc1` [SKLBC-102, (E)-N-(2-methoxy-5-(3-(5-methoxy-2,2-dimethyl-2H-chromen-8-yl)-3-oxoprop-1-en-1-yl)phenyl)-1-phenylmethanesulfonamide]: the IC50 with K562 was above 10 µM; in the assay on LO2, above 20 µM; in the assay on A375, above 10 µM; in the assay with HepG2, above 10 µM; in the assay on A549 it was above 10 µM; in the assay with SMMC-7221 it was above 10 µM.
